Data from the supplement of paper PMC11061612.

How the values were obtained:
Assay in all cases: Bliss excess, mean over the matrix (fraction); higher = more synergy
[1] = tested on: CADO-ES1 (Ewing's Sarcoma)
Procedure, shortened: (§1)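 After 24 hours at 37°C and 5% CO2 in 1536-well plates, cells in DMEM/F12 or RPMI plus 10% FBS received two-drug dose matrices for 72 hours. Viability came from CellTiter-Glo 2.0 luminescence and was scaled as inhibition, anchored at 0 by vehicle wells and at 1 by blank wells. Combination Emax is taken as the second-highest inhibition in the matrix, and Bliss excess as the observed combination effect less EA + EB − EA·EB, with EA and EB the single-agent effects.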

[2] = tested on: Ca-Ski (Cervical Carcinoma)
Procedure, shortened: as §1

[3] = tested on: EFO-21 (Ovarian Carcinoma)
Procedure, shortened: as §1

[4] = tested on: EJM (Plasma Cell Myeloma)
Procedure, shortened: as §1

EW-1 (Ewing's Sarcoma) = tested on: EW-1 (Ewing's Sarcoma)
Procedure, shortened: as §1

[5] = tested on: HAL-01 (B-Lymphoblastic Leukemia)
Procedure, shortened: as §1

[6] = tested on: HCC1937 (Breast Carcinoma)
Procedure, shortened: as §1

[7] = tested on: HCC2998 (Colorectal Carcinoma)
Procedure, shortened: as §1

Hey (Ovarian Carcinoma) = tested on: Hey (Ovarian Carcinoma)
Procedure, shortened: as §1

[8] = tested on: KGN (Other Solid Carcinomas)
Procedure, shortened: as §1

[9] = tested on: KMRC-1 (Kidney Carcinoma)
Procedure, shortened: as §1

[10] = tested on: KOPN-8 (B-Lymphoblastic Leukemia)
Procedure, shortened: as §1

[11] = tested on: MOG-G-UVW (Low Grade Glioma)
Procedure, shortened: as §1

[12] = tested on: MV-4-11 (Acute Myeloid Leukemia)
Procedure, shortened: as §1

[13] = tested on: NCI-H1092 (Small Cell Lung Carcinoma)
Procedure, shortened: as §1

[14] = tested on: NCI-H1993 (Lung Adenocarcinoma)
Procedure, shortened: as §1

[15] = tested on: SK-LU-1 (Lung Adenocarcinoma)
Procedure, shortened: as §1

[16] = tested on: SNU-387 (Hepatocellular Carcinoma)
Procedure, shortened: as §1

[17] = tested on: SW872 (Other Solid Carcinomas)
Procedure, shortened: as §1

[18] = tested on: SW982 (Other Solid Carcinomas)
Procedure, shortened: as §1

Compound | Bliss excess [1] | Bliss excess [2] | Bliss excess [3] | Bliss excess [4] | Bliss excess (EW-1 (Ewing's Sarcoma)) | Bliss excess [5] | Bliss excess [6] | Bliss excess [7] | Bliss excess (Hey (Ovarian Carcinoma)) | Bliss excess [8] | Bliss excess [9] | Bliss excess [10] | Bliss excess [11] | Bliss excess [12] | Bliss excess [13] | Bliss excess [14] | Bliss excess [15] | Bliss excess [16] | Bliss excess [17] | Bliss excess [18]
CCN(CCO)CCCOc1ccc2c(Nc3cc(CC(=O)Nc4cccc(F)c4)[nH]n3)ncnc2c1 [AZD2811] + C=CCn1c(=O)c2cnc(Nc3ccc(N4CCN(C)CC4)cc3)nc2n1-c1cccc(C(C)(C)O)n1 [AZD1775] (first compound max 1 µM, partner max 1 µM) | -0.0086 | 0.0123 | -0.062 | -0.0443 | -0.0026 | 0.0495 | -0.0331 | -0.0014 | 0.0154 | -0.0196 | 0.0036 | 0.0507 | -0.0202 | -0.0626 | -0.0183 | 0.0219 | -0.0132 | -0.0155 | 0.0203 | -0.0501
CCN(CCO)CCCOc1ccc2c(Nc3cc(CC(=O)Nc4cccc(F)c4)[nH]n3)ncnc2c1 [AZD2811] + C[C@@H]1COCCN1C2=NC(=NC(=C2)C3(CC3)[S@](=N)(=O)C)C4=C5C=CNC5=NC=C4 [AZD6738] (first compound max 1 µM, 7x7, partner max 10 µM) | -0.012 | -0.0273 | -0.0656 | -0.0286 | 0.0268 | 0.0306 | -0.0972 | -0.0574 | -0.0498 | -0.0854 | -0.042 | 0.032 | -0.0581 | -0.0118 | -0.0308 | -0.0726 | -0.0586 | -0.0864 | -0.0219 | -0.0585
CCN(CCO)CCCOc1ccc2c(Nc3cc(CC(=O)Nc4cccc(F)c4)[nH]n3)ncnc2c1 [AZD2811] + O=C(c1cc(Cc2n[nH]c(=O)c3ccccc23)ccc1F)N1CCN(C(=O)C2CC2)CC1 [Olaparib] (first compound max 1 µM, 7x7, partner max 10 µM) | 0.0242 | 0.0242 | -0.0409 | 0.0335 | 0.0008 | -0.043 | -0.0059 | 0.0257 | 0.0251 | -0.0152 | -0.015 | 0.0034 | -0.0088 | -0.0339 | -0.0196 | -0.0211 | -0.0373 | -0.0755 | 0.017 | -0.0365
CN(CCO)CC[C@H](CSc1ccccc1)Nc1ccc(S(=O)(=O)NC(=O)c2ccc(N3CCC([C@@H](O)c4ccccc4-c4ccc(Cl)cc4)CC3)cc2)cc1S(=O)(=O)C(F)(F)F [AZD4320] + CN(C)CCCOc1ccc(-c2ccc3ncc4c(c3c2)n(C2CCOCC2)c(=O)n4C)cn1 [AZD0156] (first compound max 1 µM, 7x7, partner max 1 µM) | 0.0269 | -0.0173 | -0.0579 | 0.0079 | 0.0527 | 0.024 | 0.0007 | -0.01 | -0.0272 | -0.0231 | -0.0245 | -0.052 | -0.0476 | -0.034 | -0.0078 | -0.0734 | -0.0759 | -0.0208 | -0.0107 | -0.0487
COc1nnc2ccc(N3CCC(c4ccc(OCCN5CCN(C)C(=O)[C@H]5C)cc4)CC3)nn12 [AZD5153] + C=CCn1c(=O)c2cnc(Nc3ccc(N4CCN(C)CC4)cc3)nc2n1-c1cccc(C(C)(C)O)n1 [AZD1775] (first compound max 1 µM, partner max 1 µM) | -0.0483 | 0.0125 | -0.0036 | 0.0229 | -0.0484 | -0.0938 | -0.0921 | -0.0083 | -0.0997 | -0.12 | -0.0108 | -0.0267 | -0.0518 | -0.0114 | 0.0051 | -0.0758 | -0.0461 | -0.107 | -0.0374 | -0.079
COc1nnc2ccc(N3CCC(c4ccc(OCCN5CCN(C)C(=O)[C@H]5C)cc4)CC3)nn12 [AZD5153] + CC1(C)CCC(CN2CCN(c3ccc(C(=O)NS(=O)(=O)c4ccc(NCC5CCOCC5)c([N+](=O)[O-])c4)c(Oc4cnc5[nH]ccc5c4)c3)CC2)=C(c2ccc(Cl)cc2)C1 [Venetoclax] (first compound max 1 µM, 7x7, partner max 1 µM) | -0.088 | -0.095 | -0.0464 | -0.0381 | -0.068 | -0.0804 | -0.0815 | -0.0766 | -0.0568 | -0.0165 | -0.063 | 0.0517 | -0.0315 | 0.0014 | 0.0191 | -0.0456 | -0.118 | -0.0699 | -0.051 | -0.0581
COc1nnc2ccc(N3CCC(c4ccc(OCCN5CCN(C)C(=O)[C@H]5C)cc4)CC3)nn12 [AZD5153] + CCN(CCO)CCCOc1ccc2c(Nc3cc(CC(=O)Nc4cccc(F)c4)[nH]n3)ncnc2c1 [AZD2811] (first compound max 1 µM, 7x7, partner max 1 µM) | -0.0493 | -0.0238 | -0.0771 | 0.0224 | -0.0086 | -0.0689 | -0.0581 | -0.0288 | -0.0417 | -0.0951 | -0.0437 | -0.0341 | -0.0313 | -0.0185 | 0.0499 | -0.0401 | -0.0549 | -0.0837 | -0.0335 | -0.0857
COc1nnc2ccc(N3CCC(c4ccc(OCCN5CCN(C)C(=O)[C@H]5C)cc4)CC3)nn12 [AZD5153] + C[C@@H]1COCCN1C2=NC(=NC(=C2)C3(CC3)[S@](=N)(=O)C)C4=C5C=CNC5=NC=C4 [AZD6738] (first compound max 1 µM, 7x7, partner max 10 µM) | -0.0881 | 0.0406 | -0.0069 | 0.0187 | 0.0041 | -0.0737 | -0.0516 | 0.0607 | -0.0048 | -0.0865 | 0.0195 | -0.0114 | -0.046 | 0.0009 | 0.0493 | -0.0462 | 0.0147 | -0.0501 | -0.0383 | -0.0392
COc1nnc2ccc(N3CCC(c4ccc(OCCN5CCN(C)C(=O)[C@H]5C)cc4)CC3)nn12 [AZD5153] + Cc1c2c(nn1C)CSCc1cc(n(C)n1)CSc1cc(c3ccccc3c1)OCCCc1c(C(=O)O)n(C)c3c-2c(Cl)ccc13 [AZD5991] (first compound max 1 µM, 7x7, partner max 1 µM) | 0.0176 | 0.0415 | -0.0428 | 0.0564 | 0.0165 | -0.0787 | -0.0426 | 0.0352 | -0.0231 | -0.0364 | -0.0482 | 0.0112 | -0.0387 | -0.0001 | 0.003 | -0.0106 | -0.061 | -0.0082 | -0.0229 | -0.0488
COc1nnc2ccc(N3CCC(c4ccc(OCCN5CCN(C)C(=O)[C@H]5C)cc4)CC3)nn12 [AZD5153] + Cn1cnc2c(F)c(Nc3ccc(Br)cc3Cl)c(C(=O)NOCCO)cc21 [Selumetinib] (first compound max 1 µM, 7x7, partner max 10 µM) | -0.0469 | 0.0324 | -0.0593 | 0.0207 | 0.041 | 0.0347 | -0.0523 | 0.0118 | -0.0092 | -0.002 | -0.0365 | 0.114 | -0.0045 | 0.0309 | -0.0592 | -0.0228 | 0.0022 | 0.0012 | 0.0635 | -0.0039
Cc1c2c(nn1C)CSCc1cc(n(C)n1)CSc1cc(c3ccccc3c1)OCCCc1c(C(=O)O)n(C)c3c-2c(Cl)ccc13 [AZD5991] + C1CN(CCC1(C(=O)N[C@@H](CCO)C2=CC=C(C=C2)Cl)N)C3=NC=NC4=C3C=CN4 [Capivasertib] (first compound max 1 µM, 7x7, partner max 3 µM) | -0.029 | 0.0269 | -0.0406 | 0.0504 | 0.0232 | 0.0298 | -0.0108 | -0.0434 | -0.0349 | 0.0051 | -0.0076 | -0.0468 | -0.0173 | -0.0089 | 0.0204 | 0.0523 | -0.0042 | 0.0124 | 0.0057 | -0.0074
Cc1c2c(nn1C)CSCc1cc(n(C)n1)CSc1cc(c3ccccc3c1)OCCCc1c(C(=O)O)n(C)c3c-2c(Cl)ccc13 [AZD5991] + C=CCn1c(=O)c2cnc(Nc3ccc(N4CCN(C)CC4)cc3)nc2n1-c1cccc(C(C)(C)O)n1 [AZD1775] (first compound max 1 µM, partner max 1 µM) | -0.0308 | -0.0012 | 0.0177 | 0.0357 | 0.01 | -0.0197 | -0.0157 | 0.0142 | -0.0325 | -0.002 | 0.0071 | -0.0397 | -0.0756 | -0.0407 | -0.048 | 0.0026 | -0.0082 | -0.0632 | 0.0634 | -0.0549
Cc1c2c(nn1C)CSCc1cc(n(C)n1)CSc1cc(c3ccccc3c1)OCCCc1c(C(=O)O)n(C)c3c-2c(Cl)ccc13 [AZD5991] + CC1(C)CCC(CN2CCN(c3ccc(C(=O)NS(=O)(=O)c4ccc(NCC5CCOCC5)c([N+](=O)[O-])c4)c(Oc4cnc5[nH]ccc5c4)c3)CC2)=C(c2ccc(Cl)cc2)C1 [Venetoclax] (first compound max 1 µM, 7x7, partner max 1 µM) | -0.0023 | 0.0006 | -0.0608 | 0.0164 | 0.103 | 0.0231 | -0.0208 | -0.0362 | -0.0236 | -0.0308 | -0.0446 | -0.102 | 0.0083 | 0.0591 | 0.117 | 0.0009 | -0.0368 | -0.0426 | -0.0443 | -0.0312
Cc1c2c(nn1C)CSCc1cc(n(C)n1)CSc1cc(c3ccccc3c1)OCCCc1c(C(=O)O)n(C)c3c-2c(Cl)ccc13 [AZD5991] + CCN(CCO)CCCOc1ccc2c(Nc3cc(CC(=O)Nc4cccc(F)c4)[nH]n3)ncnc2c1 [AZD2811] (first compound max 1 µM, 7x7, partner max 1 µM) | 0.0101 | 0.0869 | -0.0065 | 0.0504 | 0.0979 | 0.0012 | -0.0028 | 0.0679 | 0.0293 | -0.0067 | 0.0096 | -0.0289 | 0.0197 | -0.0046 | 0.0479 | -0.0072 | -0.0306 | -0.0333 | 0.0237 | -0.0578
